ChEMBL document CHEMBL3875152, “Synthesis and evaluation against Leishmania amazonensis of novel pyrazolo[3,4-d]pyridazinone-N-acylhydrazone-(bi)thiophene hybrids” (Eur J Med Chem, 2016)

Experiments:
Leishmania amazonensis [1] = test: Antileishmanial activity against Leishmania amazonensis WHOM/BR/75/JOSEFA promastigotes after 72 hrs by Neubauer chamber method; type: functional
[2] = Selectivity index, ratio of CC50 for mouse L929 cells to IC50 for Leishmania amazonensis WHOM/BR/75/JOSEFA axenic amastigotes; type: functional
Leishmania amazonensis [3] = test: Antileishmanial activity against Leishmania amazonensis WHOM/BR/75/JOSEFA axenic amastigotes after 72 hrs by Neubauer chamber method; type: functional
[4] = Selectivity index, ratio of CC50 for mouse J774A1 cells to IC50 for Leishmania amazonensis WHOM/BR/75/JOSEFA promastigotes; type: functional, J774.A1
[5] = Cytotoxicity against mouse L929 cells assessed as decrease in cell viability after 48 hrs by MTT method; type: toxicity
[6] = Cytotoxicity against mouse J774A1 cells assessed as decrease in cell viability after 48 hrs by MTT method; type: toxicity, J774.A1
[7] = Selectivity index, ratio of CC50 for mouse J774A1 cells to IC50 for Leishmania amazonensis WHOM/BR/75/JOSEFA axenic amastigotes; type: functional, J774.A1
[8] = Selectivity index, ratio of CC50 for mouse L929 cells to IC50 for Leishmania amazonensis WHOM/BR/75/JOSEFA promastigotes; type: functional

| Compound | IC50 (Leishmania amazonensis [1]) [µM] | other results |
| --- | --- | --- |
| O=C(N/N=C/c1cccs1)c1nn(-c2ccc(Cl)cc2)c(=O)c2c1cnn2-c1ccccc1 | > 100 |  |
| NNC(=O)c1nn(-c2ccc(Cl)cc2)c(=O)c2c1cnn2-c1ccc(Cl)cc1 | > 100 |  |
| CN(/N=C/c1ccc(-c2cccs2)s1)C(=O)c1nn(-c2ccccc2)c(=O)c2c1cnn2-c1ccccc1 | > 100 |  |
| NNC(=O)c1nn(-c2ccc(Cl)cc2)c(=O)c2c1cnn2-c1ccccc1 | > 100 |  |
| NNC(=O)c1nn(-c2ccccc2)c(=O)c2c1cnn2-c1ccc(Cl)cc1 | > 100 |  |
| O=C(N/N=C/c1cccs1)c1nn(-c2ccc(Cl)cc2)c(=O)c2c1cnn2-c1ccc(Cl)cc1 | > 100 |  |
| NNC(=O)c1n[nH]c(=O)c2c1cnn2-c1ccccc1 | > 100 |  |
| O=C(N/N=C/c1cccs1)c1nn(-c2ccccc2)c(=O)c2c1cnn2-c1ccc(Cl)cc1 | > 100 |  |
| NNC(=O)c1n[nH]c(=O)c2c1cnn2-c1ccc(Cl)cc1 | > 100 |  |
| O=C(N/N=C/c1cccs1)c1nn(-c2ccccc2)c(=O)c2c1cnn2-c1ccccc1 | 85 | Ratio CC50/IC50 [2]: 5.68; IC50 (Leishmania amazonensis [3]): 32.7 µM; Ratio CC50/IC50 [4]: 1.25; CC50 at 48 h [5]: 186 µM; CC50 at 48 h [6]: 106 µM; Ratio CC50/IC50 [7]: 3.25; Ratio CC50/IC50 [8]: 2.19 |
| NNC(=O)c1nn(-c2ccccc2)c(=O)c2c1cnn2-c1ccccc1 | > 100 |  |
| C[C@@H]1[C@H](O)[C@@H](C)/C=C/C=C/C=C/C=C/C=C/C=C/C=C/[C@H](O[C@@H]2O[C@H](C)[C@@H](O)[C@H](N)[C@@H]2O)C[C@@H]2O[C@](O)(C[C@@H](O)C[C@@H](O)[C@H](O)CC[C@@H](O)C[C@@H](O)CC(=O)O[C@H]1C)C[C@H](O)[C@H]2C(=O)O [AMPHOTERICIN B] | 0.64 | Ratio CC50/IC50 [4]: 26.25; CC50 at 48 h [5]: 79.1 µM; CC50 at 48 h [6]: 16.8 µM; Ratio CC50/IC50 [8]: 123.64 |

Second part, led by results:

| IC50 (Leishmania amazonensis [1]) [µM] | Compound | other results |
| --- | --- | --- |
| > 100 | O=C(N/N=C/c1cccs1)c1n[nH]c(=O)c2c1cnn2-c1ccccc1 |  |
| > 100 | O=C(N/N=C/c1cccs1)c1n[nH]c(=O)c2[nH]ncc12 |  |
| 3.63 | O=C(N/N=C/c1ccc(-c2cccs2)s1)c1nn(-c2ccccc2)c(=O)c2c1cnn2-c1ccccc1 | Ratio CC50/IC50 [2]: 33.38; IC50 (Leishmania amazonensis [3]): 2.32 µM; Ratio CC50/IC50 [4]: >52.71; CC50 at 48 h [5]: 77.4 µM; CC50 at 48 h [6]: > 191 µM; Ratio CC50/IC50 [7]: >82.48; Ratio CC50/IC50 [8]: 21.33 |
| > 100 | O=C(N/N=C/c1ccc(-c2cccs2)s1)c1n[nH]c(=O)c2c1cnn2-c1ccc(Cl)cc1 |  |
| > 100 | O=C(N/N=C/c1ccc(-c2cccs2)s1)c1n[nH]c(=O)c2[nH]ncc12 |  |
| > 100 | O=C(N/N=C/c1ccc(-c2cccs2)s1)c1nn(-c2ccccc2)c(=O)c2c1cnn2-c1ccc(Cl)cc1 |  |
| > 100 | O=C(N/N=C/c1cccs1)c1n[nH]c(=O)c2c1cnn2-c1ccc(Cl)cc1 |  |
| > 100 | NNC(=O)c1n[nH]c(=O)c2[nH]ncc12 |  |
| > 100 | O=C(N/N=C/c1ccc(-c2cccs2)s1)c1nn(-c2ccc(Cl)cc2)c(=O)c2c1cnn2-c1ccccc1 |  |
| 10.8 | O=C(N/N=C/c1ccc(-c2cccs2)s1)c1n[nH]c(=O)c2c1cnn2-c1ccccc1 | IC50 (Leishmania amazonensis [3]): > 100 µM; Ratio CC50/IC50 [4]: 10.6; CC50 at 48 h [5]: < 1 µM; CC50 at 48 h [6]: 114 µM |
| > 100 | O=C(N/N=C/c1ccc(-c2cccs2)s1)c1nn(-c2ccc(Cl)cc2)c(=O)c2c1cnn2-c1ccc(Cl)cc1 |  |
